Data on three compounds can be found in article PMC12380353, “MK-8527 is a novel inhibitor of HIV-1 reverse transcriptase translocation with potential for extended-duration dosing” (PLOS Biology, 2025).

Values joined by “and” are separate entries in the source; they are usually repeats but may differ in a detail not shown here. Equal entries are not always repeated. Where two headings read alike, the source gives them in different places.

Data set [1] deals with HIV-1. The data set can be described thus: microbe, parasite or virus in culture. Conditions: for IC50: Human immunodeficiency virus 1, PBMC. The method, then: IC50 values were determined, and a persistence ratio was calculated for each compound. GFP, green fluorescent protein; hpi, hours post-infection; IC50, half maximal inhibitory concentration.
Assay media in each well were then evacuated and the cells resuspended using the gentle setting on the BlueWasher (BlueCatBio; Lebanon, NH, USA). Centrifugation and wash steps were repeated to ensure removal of extracellular compound.
MT4-GFP cells were infected with WT R8 virus, and PBMCs were infected with pNLG1-P2A-GFP. […] IC50 values were determined by nonlinear 4-parameter curve fitting of the data. A persistence ratio was calculated for each compound by dividing the IC50 from variable B (IC50B) by the IC50 from variable A (IC50A).

Data set [2] concerns HIV-1. As to conditions: HIV-1, PBMCs; read-out: PBMC IC50; cited from earlier work.
Data set [3] relates to HIV-1. The data set can be described thus: microbe, parasite or virus in culture.
Data set [4] in a line: CellTiter-Glo (CTG) cytotoxicity in MT4-GFP cells. As to conditions: human. (Cellular ATP, detected with luciferase, serves as a proxy for viable cell number.)
The target in data set [5] is T1, HIV RT (Human immunodeficiency virus type 1 group M subtype B, UniProt P04585).
T1 construct: HIV RT (final concentration, 1,200 nM)
The data set can be described thus: Iron footprinting assay of RT translocation state. As to conditions: 1 µM MK-8527-TP or ISL-TP, 5 µM ddATP; absence or presence of dTTP. It counts as biochemical. The method, then: The translocation state of RT was assessed with a site-specific iron footprinting assay adapted from previous work. Primer and template used for this assay are described in Fig 7A. The presence of Fe^2+ ions in the reaction generated hydroxyl radicals that cleaved the DNA template in a site-specific manner at the nucleotide closest to the RNase H active site. In addition to an RT inhibitor in the reaction, dTTP, the subsequent dNTP, was provided in dose titration to force the translocation of the 3′-primer terminus from the pre-translocation N-site to the post-translocation P-site.
(final concentration, 1 µM), or ddATP (final concentration, 5 µM), Td43/Pd30 pre-annealed primer and template (final concentration, 200 nM based on Cy3-labeled Td43 concentration), and dTTP titrated at various concentrations. All reagent stocks were in a base assay buffer consisting of 120 mM Tris pH 7.5, 20 mM NaCl, and 6 mM MgCl2 in nuclease-free water. […] The reaction was then heated to 37 °C for 5 min before quenching 1:1 with gel-loading dye followed by heating at 95 °C for 10 min. Samples were stored at −20 °C until being resolved by polyacrylamide gel electrophoresis with 7 M urea.

Data set [6] addresses T1, HIV RT. The data set can be described thus: HIV-RT primer extension assay (chain termination). The class given is biochemical. As to conditions: 1 µM each dNTP. How it is done: The reaction protocol was adapted from previous work. Primers and template used for this assay are described in Fig 8A.
All reagent stocks were in a base assay buffer consisting of 50 mM Tris pH 7.5 and 50 mM NaCl in nuclease-free water. […] Samples were then heated to 95 °C for 10 min prior to storage at −20 °C until being resolved by polyacrylamide gel electrophoresis with 7 M urea.

The test system of data set [7] is HIV-1. Put plainly: Multicycle antiviral assay in MT4-GFP cells. As to conditions: WT HIV-1, multicycle assay, 10% NHS. The class given is cell-based. How it is done:
Compounds were evaluated for their ability to prevent HIV-1 infection in MT4-GFP cells as described in Diamond, and colleagues. HIV-1 replication was monitored using the MT4-gag-GFP clone D3, and MT4 cells with a GFP reporter gene, the expression of which is dependent on the HIV-1 expressed proteins tat and rev. […] Proviral variants used for these studies were generated by site-directed mutagenesis in the WT R8 proviral plasmid. Virus was produced by transfection in 293T cells.
Briefly, MT4-GFP cells were cultured overnight with the appropriate HIV-1 variant at an approximate multiplicity of infection of 0.01. After approximately 19 h of infection, the cells were washed and resuspended in assay media containing 10% normal human serum (NHS) before being added to 384-well compound plates containing 10-point serial 3-fold dilutions of compound. Controls included no inhibitor (dimethyl sulfoxide [DMSO] only) and a combination of 3 antiviral agents, efavirenz, indinavir, and an integrase strand transfer inhibitor, L-002254051, at final concentrations of 4 µM each. The infected or treated cells were cultured at 37 °C, 5% CO2, and 90% humidity until evaluation of infection was conducted at approximately 48 and 72 h post-infection by counting the number of GFP cells in each well using an Acumen eX3 scanner (SPT Labtech; Melbourn, UK). The reproductive ratio, R, was calculated by dividing the number of infected cells at 72 h by the number at 48 h post-infection. The percentage inhibition caused by a test compound was calculated by the following formula:
inhibition = [1−(Rtest compound − Rpositive control)]/(RDMSO only − Rpositive control) × 100%\]
The dose–response curves of each test compound were plotted as percentage inhibition versus the test concentration.

Data set [8] deals with HIV-1. Put plainly: Single-cycle antiviral assay in PBMCs. It counts as cell-based. Conditions: HIV-1, single-cycle assay, human PBMCs, 10% NHS; read-out: PBMC IC50. How it is done: To evaluate the ability of inhibitors to prevent HIV-1 infection in primary cells, human PBMCs obtained from Biological Specialty Corporation (Colmar, PA, USA) were used to assess antiviral activity. The proviral variants used for these studies were generated by site-directed mutagenesis in a proviral vector derived from NL43 [52] that encodes GFP (pNLG1-P2A-GFP). Virus was produced by transfection in 293T cells.
PBMCs were activated with phytohemagglutinin (PHA) at 5 μg/mL in Roswell Park Memorial Institute (RPMI) 1640 medium containing 10% heat-inactivated fetal bovine serum (FBS) for 2–3 days. Compound plates were prepared by dispensing compounds dissolved in DMSO into 384-well poly-d-lysine-coated plates (0.2 μL per well) using an Echo acoustic dispenser (Labcyte; San Jose, CA, USA). Each compound was tested in a 10-point serial 3-fold dilution (typical final concentrations: 5,000 to 0.1 nM). Controls included no inhibitor (DMSO only) and a combination of 3 antiviral agents, efavirenz, indinavir, and the integrase strand transfer inhibitor, L-002254051, at final concentrations of 4 μM each. PHA-activated human PBMCs were washed and resuspended in RPMI 1640 containing 10% NHS and 30 units per mL of interleukin-2 (IL-2) at 6 × 10^5 cells per mL. PBMCs were added to the compound plates and cultured for 24 h at 37 °C, 5% CO2, and 90% humidity. The appropriate HIV-1 variant was added to the PBMCs and cultured at 37 °C, 5% CO2, and 90% humidity for an additional 24 h.
HIV-1–infected cells were quantified by counting the number of GFP cells in each well using an Acumen eX3 scanner (SPT Labtech; Melbourn, UK).

The test system of data set [9] is HIV-1.
For another data set, the system named is MT4-GFP cells. The data set can be described thus: CellTiter-Glo (CTG) cytotoxicity in MT4-GFP cells. As to conditions: read-out: MT4-GFP CTG CC50, CellTiter-Glo.

Regarding `C#C[C@]1(CO)O[C@@H](n2cnc3c(N)nc(F)nc32)C[C@@H]1O` [ISL, 4′-ethynyl-2-fluoro-2′-deoxyadenosine, reference compound], the IC50 in the data set with HIV-1 [1] (48 h, read-out: Persistence assay IC50B, PBMCs) is 39.7 ± 23.9 nM; in the data set on HIV-1 [1] (read-out: Persistence assay IC50A, PBMCs), 0.8 ± 0.48 nM; with HIV-1 [2], 0.2 nM and 0.23 nM; in the data set with HIV-1 [3] (Human immunodeficiency virus 1, 48 h, read-out: Persistence assay IC50B, MT4-GFP cells), 25.5 ± 9.96 nM; with HIV-1 [3] (Human immunodeficiency virus 1, read-out: Persistence assay IC50A, MT4-GFP cells) it was 0.89 ± 0.63 nM. Further, the CC50 (as a rule, the concentration giving 50% cytotoxicity) in data set [4] was > 42000 nM.
As to `Nc1ncnc2c1ncn2[C@H]1CC[C@@H](CO[P@@](=O)(O)O[P@](=O)(O)OP(=O)(O)O)O1` [ddATP, dideoxyadenosine triphosphate, reference compound], the “Translocation state of RT” value on HIV RT [5] is listed as “mostly in the post-translocation state”. The “Chain termination mechanism (ICT/DCT)” value on HIV RT [6] is listed as “only inhibits via ICT”.
As to “(2R,3S,5R)-5-(4-amino-5-methyl-7H-pyrrolo[2,3-d]pyrimidin-7-yl)-2-ethynyl-2-(hydroxymethyl)tetrahydrofuran-3-ol [Compound 8]”, the IC50 came out at 85.4 nM in the data set on HIV-1 [7] and 58.8 nM with HIV-1 [8]. Further, in the data set with HIV-1 [1] (IC50B/IC50A, PBMCs), the “Persistence ratio (PBMC)” value amounted to 18. In addition, the “Persistence ratio (MT4-GFP)” value in the data set with HIV-1 [9] amounted to 6. For the same compound, in the data set with MT4-GFP cells, the half-maximal cytotoxic concentration (CC50) turned out to be 38800 nM.
